Like-named read-outs stand apart in the source and are kept apart here. Where no end group is shown, it is not given here.
How the values were obtained:
[1] = system: Salmonella typhi (IS, DR); assay: MIC determination; format: cell-based; conditions: clinically isolated strain, drug resistance for ampicillin and benzylpenicillin; liquid LB broth; mean of three independent experiments in duplicates; ND = no detectable activity
[2] = Serum stability, residual antimicrobial activity; format: in vitro ADME; conditions: 100 µg/ml peptide, 90% fresh normal human serum, 37°C, 0-24 hours; residual activity against E. coli 08A866 by radial diffusion assay
Method: For cathelicidin-BF, antimicrobial activities against E. coli 08A866 could not be detected after 3 h-incubation, while cathelicidin-BF15 could keep its antimicrobial activity up to 10 h in 90% fresh normal human serum.

S. aureus ATCC25923 = assay: MIC determination; format: cell-based, Staphylococcus aureus; conditions: liquid LB broth, no visible growth; mean of three independent experiments in duplicates; ND = no detectable activity
[3] = system: mouse macrophage (RAW264.7); conditions: up to 400 µg/ml, data not shown
Method: (§1) Cytotoxicity and serum stability were measured according the methods described by Mygind et al. The details were provided in the Materials and Methods S1.
(§2) Hemolysis assays were undertaken using human red blood cells in liquid medium as our previous reoprts. Serial dilutions of the peptide were used, and after incubation at 37 °C for 30 min, the cells were centrifuged and the absorbance in the supernatant was measured at 540 nm. Maximum hemolysis was determined by adding 1% Triton X-100 to a sample of cells. Cytotoxicity was measured according the methods described by Mygind et al, using mouse macrophage (RAW264.7) and tumor cell (HepG2). Serum stability was checked by incubating 100 µg/ml cathelicidin-BF with 90% fresh normal human serum at 37 °C for 0, 1, 2, 3, 6, and 24 hours. Residual antimicrobial activities were measured by performing radial diffusion assays with E. coli 08A866 as described by Mygind et al.

[4] = system: human liver tumor cell (HepG2); conditions: up to 400 µg/ml, data not shown
Method: as §1, §2

[5] = system: Acinetobacter calcoaceticus; assay: microbe, parasite or virus in culture; conditions: liquid LB broth, no visible growth; mean of three independent experiments in duplicates; ND = no detectable activity
Method: (§3) Antimicrobial activities of cathelicidin-BF and cathelicidin-BF15 ([…]) were tested according to our previous methods [39]–[42]. […] The details were provided in the Materials and Methods S1.
(§4) Standard and clinically isolated microorganism strains were used for antimicrobial assays. Bacteria were first grown in LB (Luria-Bertani) broth to an OD600 nm of 0.8. A 10 µl aliquot of the bacteria was then taken and added to 8 ml of fresh LB broth with 0.7% agar and poured over a 90 mm Petri dish containing 25 ml of 1.5% agar in LB broth. After the top agar hardened, a 20 µl aliquot of the test sample filtered on a 0.22 µm Millipore filter was dropped onto the surface of the top agar and completely dried before being incubated overnight at 37 °C. If the sample examined had antimicrobial activity, a clear zone would be formed on the surface of the top agar representing inhibition of bacterial growth. Minimal inhibitory concentration (MIC) was determined in liquid LB medium by incubating the bacteria in LB broth with variable amounts of the sample tested. The MIC at which no visible growth occurred was recorded. In the assays of anti-fungi activity, for strains of Aspergillus terreus, A. niculans, and Chaetomium globosum, the fungal spore concentration was first counted under a microscope. The fungi with an initial concentration of 10^5 spores/ml were cultured with variable amounts of the sample tested in yeast extract-peptone-dextrose broth.

[6] = system: Staphylococcus aureus ATCC2592; assay: microbe, parasite or virus in culture; conditions: standard strain; liquid LB broth, no visible growth; mean of three independent experiments in duplicates; ND = no detectable activity
Method: as §3, §4

Bacillus cereus = assay: microbe, parasite or virus in culture; conditions: liquid LB broth, no visible growth; mean of three independent experiments in duplicates; ND = no detectable activity
Method: as §3, §4

Bacillus subtilis = assay: microbe, parasite or virus in culture; conditions: liquid LB broth, no visible growth; mean of three independent experiments in duplicates; ND = no detectable activity
Method: as §3, §4

[7] = system: Pseudomonas aeruginosa ATCC27853; assay: microbe, parasite or virus in culture; conditions: standard strain; liquid LB broth, no visible growth; mean of three independent experiments in duplicates; ND = no detectable activity
Method: as §3, §4

[8] = system: Escherichia coliATCC25922; assay: microbe, parasite or virus in culture; conditions: standard strain; liquid LB broth, no visible growth; mean of three independent experiments in duplicates; ND = no detectable activity
Method: as §3, §4

Bacillus pumilus = assay: microbe, parasite or virus in culture; conditions: liquid LB broth, no visible growth; mean of three independent experiments in duplicates; ND = no detectable activity
Method: as §3, §4

[9] = system: S. aureus 08031002 (IS, DR); conditions: clinically isolated strain, drug resistance for ampicillin and benzylpenicillin; liquid LB broth; mean of three independent experiments in duplicates; ND = no detectable activity
Method: as §3, §4

[10] = system: P.aeruginosa 08031014(IS, DR); conditions: clinically isolated strain, drug resistance for ampicillin and benzylpenicillin; liquid LB broth; mean of three independent experiments in duplicates; ND = no detectable activity
Method: as §3, §4

[11] = system: S. aureus 08031013 (IS, DR); conditions: clinically isolated strain, drug resistance for ampicillin and benzylpenicillin; liquid LB broth; mean of three independent experiments in duplicates; ND = no detectable activity
Method: as §3, §4

[12] = system: Enterococcus faecium (IS, DR); conditions: clinically isolated strain, drug resistance for ampicillin and benzylpenicillin; liquid LB broth; mean of three independent experiments in duplicates; ND = no detectable activity
Method: as §3, §4

E. coli 08A852 (IS, DR) = conditions: clinically isolated strain, drug resistance for ampicillin and benzylpenicillin; liquid LB broth; mean of three independent experiments in duplicates; ND = no detectable activity
Method: as §3, §4

[13] = system: E. coli 08040726 (IS, DR); conditions: clinically isolated strain, drug resistance for ampicillin and benzylpenicillin; liquid LB broth; mean of three independent experiments in duplicates; ND = no detectable activity
Method: as §3, §4

Serratia marcescens MA = conditions: liquid LB broth, no visible growth; mean of three independent experiments in duplicates; ND = no detectable activity
Method: as §3, §4

E. coli 08A866(IS, DR) = conditions: clinically isolated strain, drug resistance for ampicillin and benzylpenicillin; liquid LB broth; mean of three independent experiments in duplicates; ND = no detectable activity
Method: as §3, §4

[14] = system: Aspergillus terreus GIM3.34; conditions: saprophytic fungus; 10^5 spores/ml, yeast extract-peptone-dextrose broth; mean of three independent experiments in duplicates; ND = no detectable activity
Method: as §3, §4

[15] = system: Sacharibacillus kuerlensis; conditions: liquid LB broth, no visible growth; mean of three independent experiments in duplicates; ND = no detectable activity
Method: as §3, §4

Aspergillus niculans = conditions: saprophytic fungus; 10^5 spores/ml, yeast extract-peptone-dextrose broth; mean of three independent experiments in duplicates; ND = no detectable activity
Method: as §3, §4

[16] = system: E. coli 08032813 (IS, DR); conditions: clinically isolated strain, drug resistance for ampicillin and benzylpenicillin; liquid LB broth; mean of three independent experiments in duplicates; ND = no detectable activity
Method: as §3, §4

[17] = system: Klebsiella pneumoniae (IS, DR); conditions: clinically isolated strain, drug resistance for ampicillin and benzylpenicillin; liquid LB broth; mean of three independent experiments in duplicates; ND = no detectable activity
Method: as §3, §4

[18] = system: S. aureus 08A875 (IS, DR); conditions: clinically isolated strain, drug resistance for ampicillin and benzylpenicillin; liquid LB broth; mean of three independent experiments in duplicates; ND = no detectable activity
Method: as §3, §4

[19] = system: Sphingobacterium siyangense; conditions: liquid LB broth, no visible growth; mean of three independent experiments in duplicates; ND = no detectable activity
Method: as §3, §4

[20] = system: K. pneumoniae 08040202 (IS, DR); conditions: clinically isolated strain, drug resistance for ampicillin and benzylpenicillin; liquid LB broth; mean of three independent experiments in duplicates; ND = no detectable activity
Method: as §3, §4

[21] = system: E. coli 08031017 (IS, DR); conditions: clinically isolated strain, drug resistance for ampicillin and benzylpenicillin; liquid LB broth; mean of three independent experiments in duplicates; ND = no detectable activity
Method: as §3, §4

[22] = system: S. aureus 08A865 (IS, DR); conditions: clinically isolated strain, drug resistance for ampicillin and benzylpenicillin; liquid LB broth; mean of three independent experiments in duplicates; ND = no detectable activity
Method: as §3, §4

Pseudomonas luteola = conditions: liquid LB broth, no visible growth; mean of three independent experiments in duplicates; ND = no detectable activity
Method: as §3, §4

[23] = system: S. aureus 08032810 (IS, DR); conditions: clinically isolated strain, drug resistance for ampicillin and benzylpenicillin; liquid LB broth; mean of three independent experiments in duplicates; ND = no detectable activity
Method: as §3, §4

E. coli = conditions: for most of E. coli (standard and clinically isolated strains)
Method: as §3, §4

P. aeruginosa (IS, DR) = conditions: clinically isolated strain, drug resistance for ampicillin and benzylpenicillin; liquid LB broth; mean of three independent experiments in duplicates; ND = no detectable activity
Method: as §3, §4

Chaetomium globosum = conditions: saprophytic fungus; 10^5 spores/ml, yeast extract-peptone-dextrose broth; mean of three independent experiments in duplicates; ND = no detectable activity
Method: as §3, §4

[24] = system: K. pneumoniae 08031012 (IS, DR); conditions: clinically isolated strain, drug resistance for ampicillin and benzylpenicillin; liquid LB broth; mean of three independent experiments in duplicates; ND = no detectable activity
Method: as §3, §4

[25] = system: P.aeruginosa 08031205(IS, DR); conditions: clinically isolated strain, drug resistance for ampicillin and benzylpenicillin; liquid LB broth; mean of three independent experiments in duplicates; ND = no detectable activity
Method: as §3, §4

[26] = system: K. pneumoniae 08040724 (IS, DR); conditions: clinically isolated strain, drug resistance for ampicillin and benzylpenicillin; liquid LB broth; mean of three independent experiments in duplicates; ND = no detectable activity
Method: as §3, §4

Serratia marcescens SA = conditions: liquid LB broth, no visible growth; mean of three independent experiments in duplicates; ND = no detectable activity
Method: as §3, §4

[27] = system: S. aureus 08032712 (IS, DR); conditions: clinically isolated strain, drug resistance for ampicillin and benzylpenicillin; liquid LB broth; mean of three independent experiments in duplicates; ND = no detectable activity
Method: as §3, §4

[28] = system: S. aureus 08032706 (IS, DR); conditions: clinically isolated strain, drug resistance for ampicillin and benzylpenicillin; liquid LB broth; mean of three independent experiments in duplicates; ND = no detectable activity
Method: as §3, §4

[29] = system: E. coli 08040722 (IS, DR); conditions: clinically isolated strain, drug resistance for ampicillin and benzylpenicillin; liquid LB broth; mean of three independent experiments in duplicates; ND = no detectable activity
Method: as §3, §4

## KFFRKLKKSVKKRAKEFFKKPRVIGVSIPF [cathelicidin-BF]
[1]
  MIC: 1.2 µg/mL
[2]
  incubation time after which antimicrobial activities could not be detected: 3 h
S. aureus ATCC25923
  MIC: >400 µg/mL
[3]
  cytotoxicity: neither cytotoxic
[3]; listed as Cathelicidin-BF
  cytotoxicity: No hemolytic and cytotoxic activity
[4]
  cytotoxicity: neither cytotoxic
[4]; listed as Cathelicidin-BF
  cytotoxicity: No hemolytic and cytotoxic activity
[5]
  MIC: 2.3 µg/mL
[6]
  MIC: 4.7 µg/mL
Bacillus cereus
  MIC: 1.2 µg/mL
Bacillus subtilis
  MIC: 9.4 µg/mL
[7]
  MIC: 1.2 µg/mL
[8]
  MIC: 2.3 µg/mL
Bacillus pumilus
  MIC: 9.4 µg/mL
[9]
  MIC: >100 µg/mL
[10]
  MIC: 18.7 µg/mL
[11]
  MIC: >100 µg/mL
[12]
  MIC: 150 µg/mL
E. coli 08A852 (IS, DR)
  MIC: 1.2 µg/mL
[13]
  MIC: 0.6 µg/mL
Serratia marcescens MA
  MIC: >400 µg/mL
E. coli 08A866(IS, DR)
  MIC: 0.6 µg/mL
[14]
  MIC: 18.7 µg/mL
[15]
  MIC: 4.7 µg/mL
Aspergillus niculans
  MIC: 18.7 µg/mL
[16]
  MIC: 2.3 µg/mL
[17]
  MIC: 4.7 µg/mL
[18]
  MIC: 75 µg/mL
[19]
  MIC: 9.4 µg/mL
[20]
  MIC: 0.6 µg/mL
[21]
  MIC: 2.3 µg/mL
[22]
  MIC: >400 µg/mL
Pseudomonas luteola
  MIC: 1.2 µg/mL
[23]
  MIC: >100 µg/mL
E. coli
  MIC: lower than 2.3 µg/ml
P. aeruginosa (IS, DR)
  MIC: 2.3 µg/mL
Chaetomium globosum
  MIC: 37.5 µg/mL
[24]
  MIC: 9.4 µg/mL
[25]
  MIC: 9.4 µg/mL
[26]
  MIC: 0.3 µg/mL
Serratia marcescens SA
  MIC: >400 µg/mL
[27]
  MIC: >100 µg/mL
[28]
  MIC: >100 µg/mL
[29]
  MIC: 0.6 µg/mL

Source: publication PMC2528936, “Snake Cathelicidin from Bungarus fasciatus Is a Potent Peptide Antibiotics” (PLoS ONE, 2008)
